Legend:
Mu-type opioid receptor [1] = molecular target: T1, Mu-type opioid receptor (Homo sapiens, UniProt P35372); assay: Agonist activity at human MOR expressed in CHOK1 cells assessed as […] of cAMP accumulation incubated for 45 mins by HTRF assay; format: functional, cell-based
Mu-type opioid receptor [2] = molecular target: T1, Mu-type opioid receptor; assay: Agonist activity at human MOR expressed in CHOK1 cells assessed as […] of cAMP accumulation incubated for 45 mins by HTRF assay relative to DAMGO; format: functional, cell-based
[3] = molecular target: Voltage-gated inwardly rectifying potassium channel KCNH2 (Homo sapiens, UniProt Q12809)
Sequence of Voltage-gated inwardly rectifying potassium channel KCNH2 (Q12809 whole entry): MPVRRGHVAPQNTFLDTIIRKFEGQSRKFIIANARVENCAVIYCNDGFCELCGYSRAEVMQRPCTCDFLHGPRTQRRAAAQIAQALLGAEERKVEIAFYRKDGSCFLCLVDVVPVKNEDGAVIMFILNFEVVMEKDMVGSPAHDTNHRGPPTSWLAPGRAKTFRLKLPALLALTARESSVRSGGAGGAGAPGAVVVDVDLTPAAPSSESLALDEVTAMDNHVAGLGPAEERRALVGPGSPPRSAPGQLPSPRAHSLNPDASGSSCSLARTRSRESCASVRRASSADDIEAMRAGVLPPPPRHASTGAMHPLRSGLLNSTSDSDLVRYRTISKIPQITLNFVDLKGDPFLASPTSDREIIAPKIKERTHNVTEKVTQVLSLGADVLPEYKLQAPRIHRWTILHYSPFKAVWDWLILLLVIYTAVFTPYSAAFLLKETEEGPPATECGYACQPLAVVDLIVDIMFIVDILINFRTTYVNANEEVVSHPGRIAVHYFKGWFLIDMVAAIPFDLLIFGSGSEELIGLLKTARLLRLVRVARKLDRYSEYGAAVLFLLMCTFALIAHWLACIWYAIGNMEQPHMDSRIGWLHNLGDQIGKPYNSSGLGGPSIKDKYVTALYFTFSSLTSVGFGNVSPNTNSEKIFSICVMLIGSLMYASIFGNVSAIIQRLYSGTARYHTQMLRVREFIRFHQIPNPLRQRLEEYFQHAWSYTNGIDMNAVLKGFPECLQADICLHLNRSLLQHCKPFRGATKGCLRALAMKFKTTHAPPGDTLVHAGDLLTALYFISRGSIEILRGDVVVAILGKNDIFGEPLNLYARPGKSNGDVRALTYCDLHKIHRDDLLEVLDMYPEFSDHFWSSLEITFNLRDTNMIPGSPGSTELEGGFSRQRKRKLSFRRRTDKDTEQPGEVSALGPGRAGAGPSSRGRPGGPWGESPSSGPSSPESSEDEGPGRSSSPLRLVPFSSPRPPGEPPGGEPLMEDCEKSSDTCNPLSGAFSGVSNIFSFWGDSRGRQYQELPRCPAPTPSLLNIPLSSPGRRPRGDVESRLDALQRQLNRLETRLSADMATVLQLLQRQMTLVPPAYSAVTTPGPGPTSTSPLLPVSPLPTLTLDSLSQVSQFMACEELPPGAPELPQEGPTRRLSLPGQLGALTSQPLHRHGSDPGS
Description: Inhibition of human ERG expressed in CHOK1 cells assessed as reduction in channel current at -80 mV holding potential by whole cell patch clamp assay

Mu-type opioid receptor [4] = molecular target: T1, Mu-type opioid receptor; assay: biochemical
Description: Displacement of [3H]-DAMGO from human MOR expressed in CHOK1 cell membranes incubated for 60 mins by liquid scintillation counting method

[5] = molecular target: T2, Alpha-1A adrenergic receptor (Homo sapiens) (UniProt P35348); assay: Displacement of [3H]-prazosin from human alpha1A adrenoreceptor expressed in enriched membranes at 1 uM incubated for 90 mins by liquid scintillation counting method relative to control; format: cell membranes
T2 sequence (whole entry): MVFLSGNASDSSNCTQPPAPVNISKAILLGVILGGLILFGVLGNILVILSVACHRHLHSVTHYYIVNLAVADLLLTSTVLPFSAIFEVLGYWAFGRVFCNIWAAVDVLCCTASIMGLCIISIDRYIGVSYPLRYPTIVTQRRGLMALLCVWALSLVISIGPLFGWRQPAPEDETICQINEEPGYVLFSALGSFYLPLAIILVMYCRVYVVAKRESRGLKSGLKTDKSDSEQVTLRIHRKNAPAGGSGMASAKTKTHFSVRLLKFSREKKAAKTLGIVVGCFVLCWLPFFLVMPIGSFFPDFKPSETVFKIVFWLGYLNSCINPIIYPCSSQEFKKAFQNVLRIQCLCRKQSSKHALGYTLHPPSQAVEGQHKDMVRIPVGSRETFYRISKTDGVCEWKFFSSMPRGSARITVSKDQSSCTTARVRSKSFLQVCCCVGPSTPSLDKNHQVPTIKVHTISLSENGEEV

[6] = molecular target: Sigma non-opioid intracellular receptor 1 (Homo sapiens, UniProt Q99720); assay: Displacement of [3H]-(+)-pentazocine from human sigma-1 receptor expressed in HEK293 membranes incubated for 120 mins by liquid scintillation counting method
Sequence of Sigma non-opioid intracellular receptor 1 (Q99720 whole entry): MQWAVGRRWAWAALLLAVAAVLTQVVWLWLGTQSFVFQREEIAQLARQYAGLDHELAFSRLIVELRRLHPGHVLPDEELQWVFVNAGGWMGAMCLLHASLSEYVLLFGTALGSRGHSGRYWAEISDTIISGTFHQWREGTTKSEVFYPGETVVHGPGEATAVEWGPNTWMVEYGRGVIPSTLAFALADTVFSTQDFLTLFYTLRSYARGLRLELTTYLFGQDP

Mu-type opioid receptor [7] = molecular target: T1, Mu-type opioid receptor; assay: Agonist activity at human MOR expressed in CHOK1 cells assessed as […] of cAMP accumulation at 1 uM incubated for 45 mins by HTRF assay; format: functional, cell-based
Mu-type opioid receptor [8] = molecular target: T1, Mu-type opioid receptor; assay: Displacement of [3H]-DAMGO from human MOR expressed in CHOK1 cell membranes at 1 uM incubated for 60 mins by liquid scintillation counting method

T1 sequence (P35372 whole entry): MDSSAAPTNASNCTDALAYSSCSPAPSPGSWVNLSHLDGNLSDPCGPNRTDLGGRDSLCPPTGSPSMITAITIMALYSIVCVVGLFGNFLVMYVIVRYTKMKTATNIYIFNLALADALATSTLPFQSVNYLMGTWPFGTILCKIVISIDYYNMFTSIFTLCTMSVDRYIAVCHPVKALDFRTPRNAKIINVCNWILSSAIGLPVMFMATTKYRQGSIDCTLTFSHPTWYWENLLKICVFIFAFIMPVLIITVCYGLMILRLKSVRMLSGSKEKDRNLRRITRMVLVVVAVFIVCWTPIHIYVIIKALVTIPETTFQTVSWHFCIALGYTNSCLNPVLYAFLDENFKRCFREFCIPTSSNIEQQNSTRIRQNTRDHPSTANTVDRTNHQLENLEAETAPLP

Structure (SMILES)	EC50 (Mu-type opioid receptor [1]) [nM]	Emax (Mu-type opioid receptor [2]) [%]	IC50 [3] [nM]	Ki (Mu-type opioid receptor [4]) [nM]	inhibition [5] [%]	Ki [6] [nM]	Activity (Mu-type opioid receptor [7]) [%]	inhibition (Mu-type opioid receptor [8]) [%]
O=C1C(COCc2ccccc2)OC2(CCN(CCc3ccccc3)CC2)CN1c1ccccc1 (stereo not given)	107	96	100	40	94	40	–	–
CC1OC2(CCN(CCc3ccccc3)CC2)CN(c2cccnc2)C1=O (stereo not given)	627	54	–	304	69	68	–	–
CC1OC2(CCN(CCc3ccccc3)CC2)CN(c2cncc(C(F)(F)F)c2)C1=O (stereo not given)	721	92	500	261	87	14	–	–
CC1(C)OC2(CCN(CCc3ccccc3)CC2)CN(c2ccccc2)C1=O	4	98	100	3	92	13	–	–
CC1OC2(CCN(CCc3ccccc3)CC2)CN(c2cncc(F)c2)C1=O (stereo not given)	230	87	1100	204	85	3	–	–
CC1OC2(CCN(CCc3ccccc3)CC2)CN(c2cccc(C(F)(F)F)n2)C1=O (stereo not given)	219	91	–	90	95	8	–	–
CC(C)C1OC2(CCN(CCc3ccccc3)CC2)CN(c2ccccc2)C1=O (stereo not given)	0.2	96	1200	1	65	10	–	–
O=C1OC2(CCN(CCc3ccccc3)CC2)CN1c1ccccc1	> 1000	–	–	401	–	55	< 50	–
COc1cccc(N2CC3(CCN(CCc4ccccc4)CC3)OC(C)C2=O)c1 (stereo not given)	304	88	1000	126	82	15	–	–
CC1OC2(CCN(CCc3ccccc3)CC2)CN(c2cnccn2)C1=O (stereo not given)	527	55	100	304	64	13	–	–
CC1OC2(CCN(CCc3ccccc3)CC2)CN(c2ncccc2F)C1=O (stereo not given)	199	90	1200	93	77	39	–	–
O=C1COC2(CCN(CCc3ccccc3)C2)CN1c1ccccc1 (stereo not given)	> 1000	–	–	> 1000	–	53	< 50	< 50
CC1OC2(CCN(CCc3ccccc3)CC2)CN(c2ccc(O)cc2)C1=O (stereo not given)	> 1000	–	–	606	68	122	< 50	–
CC1OC2(CCN(CCc3cccnc3)CC2)CN(c2ccccc2)C1=O (stereo not given)	853	85	–	117	67	91	–	–
CC1OC2(CCN(CCc3ccccc3)CC2)CN(c2ccccc2O)C1=O (stereo not given)	> 1000	–	–	535	66	51	< 50	–
CC1OC2(CCN(CCc3ccccn3)CC2)CN(c2ccccc2)C1=O (stereo not given)	229	85	2000	90	49	53	–	–
C[C@@H]1OC2(CCN(CCc3ccccc3)CC2)CN(c2ccccc2)C1=O	–	83	–	–	68	14	–	–
CC1OC2(CCN(CCc3ccccc3)CC2)CN(c2ccccc2F)C1=O (stereo not given)	4	94	1200	8	68	11	–	–
CN(C)C(=O)CC1OC2(CCN(CCc3ccccc3)CC2)CN(c2ccccc2)C1=O (stereo not given)	> 1000	–	–	636	–	275	< 50	–
CC1OC2(CCN(CCc3ccccc3)CC2)CN(c2ncccc2C(F)(F)F)C1=O (stereo not given)	343	100	8200	262	60	54	–	–
CC1OC2(CCN(CCc3ccccc3)CC2)CN(c2ccccn2)C1=O (stereo not given)	1990	50	–	930	63	13	–	–
C[C@H]1OC2(CCN(CCc3ccccc3)CC2)CN(c2ccccc2)C1=O	–	95	–	–	75	21	–	–

Structure (SMILES)	EC50 (Mu-type opioid receptor [1]) [nM]	Emax (Mu-type opioid receptor [2]) [%]	IC50 [3] [nM]	Ki (Mu-type opioid receptor [4]) [nM]	inhibition [5] [%]	Ki [6] [nM]	Activity (Mu-type opioid receptor [7]) [%]	inhibition (Mu-type opioid receptor [8]) [%]
CC1OC2(CCN(CCc3ccc(F)cc3)CC2)CN(c2ccccc2)C1=O (stereo not given)	25	95	100	19	80	11	–	–
CC(=O)Nc1ccccc1CCN1CCC2(CC1)CN(c1ccccc1)C(=O)C(C)O2 (stereo not given)	342	95	–	190	68	656	–	–
C[C@H]1OC2(CCN(CCc3ccccc3F)CC2)CN(c2cnccc2C(F)(F)F)C1=O	26	100	6300	11	54	61	–	–
CC1OC2(CCN(CCc3cccc(F)c3)CC2)CN(c2ccccc2)C1=O (stereo not given)	13	94	600	10	74	8	–	–
CCC1OC2(CCN(CCc3ccccc3)CC2)CN(c2ccccc2)C1=O (stereo not given)	1	99	400	3	75	6	–	–
COC(=O)CC1OC2(CCN(CCc3ccccc3)CC2)CN(c2ccccc2)C1=O (stereo not given)	181	85	200	92	72	54	–	–
CC1OC2(CCN(CCc3ccccn3)CC2)CN(c2cnccc2C(F)(F)F)C1=O (stereo not given)	767	93	–	127	47	622	–	–
CC1OC2(CCN(CCc3ccccc3)CC2)CN(c2ccccc2Cl)C1=O (stereo not given)	1	96	1000	3	75	8	–	–
COCC1OC2(CCN(CCc3ccccc3)CC2)CN(c2ccccc2)C1=O (stereo not given)	32	90	1900	13	63	32	–	–
O=C1COC2(CCN(Cc3ccccc3)CC2)CN1c1ccccc1	3040	74	–	534	–	26	–	–
O=C1N(c2ccccc2)CC2(CCN(CCc3ccccc3)CC2)OC12CC2	11	93	1200	15	87	9	–	–
CC1OC2(CCN(CCc3ccccc3)CC2)CN(c2ccccc2)C1=O (racemic)	–	–	–	–	–	6	–	–
CC1OC2(CCN(CCc3ccncc3)CC2)CN(c2ccccc2)C1=O (stereo not given)	1420	81	–	516	30	112	–	–
CC1OC2(CCN(CCc3ccccc3F)CC2)CN(c2ccccc2)C1=O (stereo not given)	–	95	–	–	81	–	–	–
O=C1C(CO)OC2(CCN(CCc3ccccc3)CC2)CN1c1ccccc1 (stereo not given)	125	88	1100	46	55	209	–	–
CC1OC2(CCN(CCc3ccccc3)CC2)CN(c2cccc(O)c2)C1=O (stereo not given)	> 1000	–	–	727	67	55	< 50	–
CC1OC2(CCN(CCc3ccccc3)CC2)CN(c2cccnc2C(F)(F)F)C1=O (stereo not given)	186	87	3800	123	55	48	–	–
COc1ccccc1N1CC2(CCN(CCc3ccccc3)CC2)OC(C)C1=O (stereo not given)	144	81	–	57	78	38	–	–
CC1OC2(CCN(CCc3ccccc3)CC2)CN(c2cnccc2C(F)(F)F)C1=O (stereo not given)	25	96	3300	28	58	63	–	–
C[C@H]1OC2(CCN(CCc3ccccc3F)CC2)CN(c2ncccc2C(F)(F)F)C1=O	65	98	6600	34	50	103	–	–
CC1OC2(CCN(CCc3cccc(C#N)c3)CC2)CN(c2ccccc2)C1=O (stereo not given)	61	88	600	49	80	28	–	–
